The target of one data set is PI3Kγ (Homo sapiens, UniProt P48736). Kind of data set: PI3Kγ inhibitory activity (PI3-kinase HTRF assay, inhibition ratio). Conditions: 0.5 h, compound at 10 μmol/L; read-out: PI3Kg Inhibition Ratio % (10 μM). It counts as biochemical. On the procedure: For each compound synthesized in the above Examples, PI3Kγ inhibitory activity was measured.
The PI3Kγ inhibitory activity of a compound was evaluated using PI3-kinase HTRF™ assay (Millipore) according to the following procedure:
To each well of a testing plate, 5 μL of a compound solution containing 10% DMSO (40 μmol/L as the concentration of the compound), 5 μL of a substrate solution (40 μmol/L phosphatidylinositol (4,5)-bisphosphate, 20 mmol/L MgCl2, 10 mmol/L DTT), and 5 μL of an enzyme solution (80 μg/mL PI-3 kinase y, 10 mmol/L MgCl2, 5 mmol/L DTT) were added, and then allowed to stand for 10 minutes.
Then, 5 μL of a reaction solution (40 μmol/L ATP, 10 mmol/L MgCl2, 5 mmol/L DTT) was added thereto. After reacting for 30 minutes at room temperature, 5 μL of a solution containing EDTA and biotinylated phosphatidylinositol (3,4,5)-triphosphate was added to quench the reaction.
5 μL of a detection reagent containing a europium-labeled anti-GST antibody, the GST-tagged PH domain, and allophycocyanin-labeled streptavidin was added thereto. After 18 hours, HTRF (excitation wavelength: 330 nm, measured wavelengths: 620 nm and 665 nm) was measured.
HTRF ratio was defined as the value obtained by dividing the amount of fluorescence obtained at the measured wavelength 665 nm by the amount of fluorescence obtained at 620 nm. The HTRF ratio in the absence of a compound was defined as 100% activity and the HTRF ratio in the absence of PI-3 kinase y was defined as 0% activity to calculate an inhibition ratio, which was defined as the PI3Kγ inhibitory activity of a compound at 10 μmol/L.
For orientation: TR-FRET usually uses a lanthanide donor and a delayed reading to cut background.

A further data set has as its target T1, CYP3A4 (Homo sapiens, UniProt P08684).
T1 construct: host or cells: E. coli
The data set can be described thus: CYP3A4 fluorescence MBI test. The format is in vitro ADME. Conditions: difference in IC50 with 0 or 30 minutes pre-reaction; CYP3A4 expressed in E. coli, substrate 7-BFC. On the procedure: The CYP3A4 fluorescence MBI test is a test to examine the enhancement of CYP3A4 inhibition of a compound by a metabolic reaction. The test was performed using as an index, a reaction to produce a metabolite 7-hydroxytrifluoromethylcoumarin (HFC) which emits fluorescence, in which CYP3A4 expressed in E. coli was used as an enzyme and 7-benzyloxytrifluoromethylcoumarin (7-BFC) is debenzylated by CYP3A4 enzyme.
The reaction conditions are as follows: substrate: 5.6 μmol/L 7-BFC; pre-reaction time; 0 or 30 minutes; reaction time: 15 minutes; reaction temperature: 25° C. (room temperature); content of CYP3A4 (an enzyme expressed in E. coli): […] at the time of a pre-reaction and […] (when diluted 10 times) at the time of a reaction; the concentrations of a test drug: 0.625, 1.25, 2.5, 5, 10, and 20 μmol/L (6 points).
In a 96-well plate, an enzyme solution and a test drug solution were added as a pre-reaction solution into K-Pi buffer solution (pH 7.4) in the aforementioned ratio. A portion thereof was transferred to another 96-well plate to be diluted ten times with a substrate and a K-Pi buffer solution. A coenzyme, NADPH, was then added to start a reaction, which is the index (this is without a pre-reaction). After reacting for a predetermined time, 4:1 of acetonitrile: 0.5 mol/L Tris (trishydroxyaminomethane) was added to quench the reaction. To the remaining pre-reaction solution, NADPH was added to start a pre-reaction (this is with a pre-reaction). After pre-reacting for a predetermined time, a portion thereof was transferred to another plate to be diluted ten times with a substrate and K-Pi buffer solution, and thereby the index reaction is started. After reacting for a predetermined time, 4:1 of acetonitrile:0.5 mol/L Tris (trishydroxyaminomethane) was added to quench the reaction. For each plate in which the index reaction was carried out, the fluorescence value of a metabolite 7-HFC was measured with a fluorescent plate reader (Ex=420 nm, Em=535 nm).
The case wherein only DMSO (a solvent which dissolved a drug) was added to a reaction system was defined as a control (100%). When a test drug solution was added, the remaining activity (%) at each concentration was calculated, and then IC50 was calculated with a concentration and an inhibition ratio by an inverse estimation using a logistic model. When the difference in IC50 value is 5 μmol/L or more, the compound is shown as (+). When 3 μmol/L or less, the compound is shown as (−).

Data set [1] in a line: Metabolic stability test (pooled human liver microsome). The format is in vitro ADME. Conditions: percentage of test compound remained after 30 minutes, pooled human liver microsome 0.5 mg protein/mL, 1 mmol/L NADPH, 37° C., compound 0.5 μM. As for the experimental part:
After a subject compound was reacted for a certain time using a pooled human liver microsome commercially available, a reacted sample and an unreacted sample are compared to calculate a survival ratio, and then the degree of metabolism in the liver was evaluated.
0.2 mL of a buffer solution (50 mmol/L of Tris-HCl in pH 7.4, 150 mmol/L of potassium chloride, and 10 mmol/L of magnesium chloride) containing a human liver microsome of 0.5 mg protein/mL was reacted in the presence of 1 mmol/L NADPH at 37° C. for 0 or 30 minutes (oxidative reaction). After reacting, 50 μL of the reaction solution was added to 100 μL of a solution of methanol/acetonitrile (1/1 (v/v)), mixed, and then centrifuged at 3000 rpm for 15 minutes. The test compound in the supernatant was quantitated with LC/MS/MS. The amount of the compound at a reaction time of 0 minute was defined as 100% and, based on that, the percentage of the test compound remained after reacting for 30 minutes was calculated.
For orientation: Microsomes from liver hold many membrane-bound enzymes, among them those of drug oxidation.

T1 sequence (P08684 whole entry): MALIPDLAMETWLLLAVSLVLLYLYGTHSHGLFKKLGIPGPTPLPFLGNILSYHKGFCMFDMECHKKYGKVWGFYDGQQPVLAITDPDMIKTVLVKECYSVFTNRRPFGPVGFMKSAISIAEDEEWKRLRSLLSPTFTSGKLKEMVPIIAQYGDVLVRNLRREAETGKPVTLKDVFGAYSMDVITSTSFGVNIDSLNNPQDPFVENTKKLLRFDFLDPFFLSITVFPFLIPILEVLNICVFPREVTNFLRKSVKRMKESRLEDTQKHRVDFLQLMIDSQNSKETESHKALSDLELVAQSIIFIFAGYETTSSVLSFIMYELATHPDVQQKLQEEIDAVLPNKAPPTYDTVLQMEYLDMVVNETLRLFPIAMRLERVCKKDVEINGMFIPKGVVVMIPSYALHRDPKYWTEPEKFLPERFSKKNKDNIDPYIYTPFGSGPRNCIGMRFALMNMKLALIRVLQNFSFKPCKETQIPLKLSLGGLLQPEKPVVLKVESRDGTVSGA
PI3Kγ, sequence (P48736 whole entry, species assumed): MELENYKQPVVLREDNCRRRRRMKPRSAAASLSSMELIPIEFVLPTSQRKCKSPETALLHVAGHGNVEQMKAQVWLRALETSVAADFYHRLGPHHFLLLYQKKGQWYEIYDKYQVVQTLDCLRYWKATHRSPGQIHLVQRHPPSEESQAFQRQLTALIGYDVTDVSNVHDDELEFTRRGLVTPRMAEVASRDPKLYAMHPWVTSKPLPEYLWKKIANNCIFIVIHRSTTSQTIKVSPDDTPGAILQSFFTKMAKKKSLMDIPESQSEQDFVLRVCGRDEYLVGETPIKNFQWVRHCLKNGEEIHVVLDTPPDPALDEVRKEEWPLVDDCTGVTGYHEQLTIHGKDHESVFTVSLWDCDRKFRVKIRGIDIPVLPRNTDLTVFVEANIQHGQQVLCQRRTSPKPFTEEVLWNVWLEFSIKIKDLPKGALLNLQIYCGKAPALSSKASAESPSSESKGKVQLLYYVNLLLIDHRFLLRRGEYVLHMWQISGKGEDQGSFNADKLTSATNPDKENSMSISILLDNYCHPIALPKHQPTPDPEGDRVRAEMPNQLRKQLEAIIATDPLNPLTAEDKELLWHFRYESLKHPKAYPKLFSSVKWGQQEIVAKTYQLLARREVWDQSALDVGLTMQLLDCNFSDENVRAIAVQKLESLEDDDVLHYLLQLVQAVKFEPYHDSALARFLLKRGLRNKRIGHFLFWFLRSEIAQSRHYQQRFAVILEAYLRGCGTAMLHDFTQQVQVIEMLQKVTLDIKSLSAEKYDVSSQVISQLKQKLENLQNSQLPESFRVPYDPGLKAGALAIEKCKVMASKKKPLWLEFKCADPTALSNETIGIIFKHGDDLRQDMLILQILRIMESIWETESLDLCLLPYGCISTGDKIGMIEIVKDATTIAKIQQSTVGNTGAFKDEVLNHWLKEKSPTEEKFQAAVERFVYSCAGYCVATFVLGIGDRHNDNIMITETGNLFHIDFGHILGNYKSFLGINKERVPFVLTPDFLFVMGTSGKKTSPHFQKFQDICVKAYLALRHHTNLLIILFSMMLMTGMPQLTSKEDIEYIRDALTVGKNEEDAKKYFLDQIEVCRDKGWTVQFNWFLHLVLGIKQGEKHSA

`COc1cc(N2CCc3nc(NC(=O)Nc4ccccc4C(=O)NC4(C#N)CC4)sc3C2)nc(OC)n1` [Compound I-20]: on PI3Kγ, the inhibition at 10 µM was no less than 95%. Moreover, on CYP3A4, the MBI entry was “(−) (When 3 μmol/L or less, the compound is shown as (−))”.

Take `COc1cc(N2CCc3nc(NC(=O)Nc4cccnc4C(=O)NC(C)(C)C)sc3C2)nc(OC)n1` [Compound I-22]: on PI3Kγ, the inhibition at 10 µM is no less than 95%. Besides, the MBI entry at CYP3A4 is listed as “(−) (When 3 μmol/L or less, the compound is shown as (−))”.

In the case of `CC(C)NC(=O)c1ccccc1NC(=O)Nc1nc2c(s1)CN(c1ccnc(Cl)n1)CC2` [Compound I-98], the inhibition at 10 µM on PI3Kγ is no less than 95%. For the same compound, at CYP3A4, the MBI result is “(−) (When 3 μmol/L or less, the compound is shown as (−))”. Consider `COc1cc(N2CCc3nc(NC(=O)Nc4ccccc4C(C)(C)C)sc3C2)nc(OC)n1` [Compound I-40], for which the MBI result at CYP3A4 is recorded as “(−) (When 3 μmol/L or less, the compound is shown as (−))”. For the compound `COc1cc(N2CCc3nc(NC(=O)Nc4ccccc4C(N)=O)sc3C2)nc(OC)n1` [Compound I-35], the inhibition at 10 µM on PI3Kγ was no less than 95%. The “hLMS_ox(at 0.5 μM) %” value in data set [1] is recorded as 101%. In addition, the MBI result on CYP3A4 is “(−) (When 3 μmol/L or less, the compound is shown as (−))”. With `COc1cc(N2CCc3nc(NC(=O)Nc4ccccc4C(=O)CC(C)C)sc3C2)nc(OC)n1` [Compound I-65], the inhibition at 10 µM at PI3Kγ was no less than 95%. The MBI result at CYP3A4 is “(−) (When 3 μmol/L or less, the compound is shown as (−))”.

For `COc1cncc(C2(F)CCc3nc(NC(=O)Nc4ccccc4C(=O)NC(C)C)sc3C2)c1` (stereo not drawn) [Compound I-79], the MBI result at CYP3A4 is on record as “(−) (When 3 μmol/L or less, the compound is shown as (−))”.

As to `COc1cc(N2CCc3nc(NC(=O)Nc4ccccc4C(=O)NCCC(C)C)sc3C2)nc(OC)n1` [Compound I-59], the MBI entry at CYP3A4 is on record as “(−) (When 3 μmol/L or less, the compound is shown as (−))”. Consider `CNC(=O)c1ccccc1NC(=O)Nc1nc2c(s1)CN(c1cc(OC)nc(OC)n1)CC2` [Compound I-56], for which, in data set [1], the “hLMS_ox(at 0.5 μM) %” value is reported as 95.5%. For the same compound, at CYP3A4, the MBI result was “(−) (When 3 μmol/L or less, the compound is shown as (−))”.

For the compound `COc1cc(N2CCc3nc(NC(=O)Nc4cnccc4C(=O)NC(C)(C)C)sc3C2)nc(OC)n1` [Compound I-23], the inhibition at 10 µM on PI3Kγ was no less than 95%. Moreover, the MBI entry on CYP3A4 is listed as “(−) (When 3 μmol/L or less, the compound is shown as (−))”. As for `CS(=O)(=O)c1cccc(N2CCc3nc(NC(=O)Nc4ccccc4C(=O)NCC#N)sc3C2)c1` [Compound I-200], at PI3Kγ, the inhibition at 10 µM was no less than 95%. At CYP3A4, the MBI entry was “(−) (When 3 μmol/L or less, the compound is shown as (−))”.

As for `COc1cc(N2CCc3nc(NC(=O)Nc4cc(F)ccc4C(=O)NC(C)C)sc3C2)nc(OC)n1` [Compound I-74], the “hLMS_ox(at 0.5 μM) %” value in data set [1] stood at 83.3%. Further, on CYP3A4, the MBI result was “(−) (When 3 μmol/L or less, the compound is shown as (−))”.

Consider `COc1cc(N2CCc3nc(NC(=O)Nc4ccccc4OC(F)(F)F)sc3C2)nc(OC)n1` [Compound I-34], for which the MBI entry on CYP3A4 is on record as “(−) (When 3 μmol/L or less, the compound is shown as (−))”. Take `COc1cncc(N2CCc3nc(NC(=O)Nc4ccccc4C(=O)NC(C)C)sc3C2)c1` [Compound I-49]: the MBI result on CYP3A4 is reported as “(−) (When 3 μmol/L or less, the compound is shown as (−))”. In the case of `COc1cc(N2CCc3nc(NC(=O)Nc4ccccc4C(=O)NCC(C)C)sc3C2)nc(OC)n1` [Compound I-58], the MBI result at CYP3A4 is “(−) (When 3 μmol/L or less, the compound is shown as (−))”. Same read-out and setting: the same measure for `COc1cc(N2CCc3nc(NC(=O)Nc4ccccc4C(F)(F)F)sc3C2)nc(OC)n1` [Compound I-33]: “(−) (When 3 μmol/L or less, the compound is shown as (−))”.

Turning to `Cc1cc(N2CCc3nc(NC(=O)Nc4ccccc4C(=O)N[C@@H](C)CO)sc3C2)nc(C#N)n1` [Compound I-180], at PI3Kγ, the inhibition at 10 µM was found to be 89%. Also, the “hLMS_ox(at 0.5 μM) %” value in data set [1] came to 92.6%. Further, on CYP3A4, the MBI entry is on record as “(−) (When 3 μmol/L or less, the compound is shown as (−))”. On to `Cc1cc(N2CCc3nc(NC(=O)Nc4ccccc4C(=O)N[C@H](C)CO)sc3C2)nc(C#N)n1` [Compound I-185], for which, on PI3Kγ, the inhibition at 10 µM is no less than 95%. In data set [1], the “hLMS_ox(at 0.5 μM) %” value was 87.6%. At CYP3A4, the MBI entry is given as “(−) (When 3 μmol/L or less, the compound is shown as (−))”. As for `COc1cc(N2CCc3nc(NC(=O)Nc4cccc(F)c4C(=O)NC(C)C)sc3C2)nc(OC)n1` [Compound I-75], the MBI result at CYP3A4 was “(−) (When 3 μmol/L or less, the compound is shown as (−))”. In the case of `Cc1cc(N2CCc3nc(NC(=O)Nc4cn(C)nc4C(=O)NC(C)C)sc3C2)nc(C#N)n1` [Compound I-186], the inhibition at 10 µM on PI3Kγ is 91%. Moreover, the MBI entry at CYP3A4 was “(−) (When 3 μmol/L or less, the compound is shown as (−))”. Regarding `Cc1cc(N2CCc3nc(NC(=O)Nc4ccccc4C(=O)N[C@@H](C)CO)sc3C2)nc(Cl)n1` [Compound I-168], the inhibition at 10 µM on PI3Kγ was found to be 89%. Also, the “hLMS_ox(at 0.5 μM) %” value in data set [1] stood at 104%. On CYP3A4, the MBI entry is given as “(−) (When 3 μmol/L or less, the compound is shown as (−))”.

With `Cc1cc(N2CCc3nc(NC(=O)Nc4ccccc4C(=O)NC(C)C)sc3C2)nc(Cl)n1` [Compound I-163], the inhibition at 10 µM on PI3Kγ came out at 83%. For the same compound, the “hLMS_ox(at 0.5 μM) %” value in data set [1] was found to be 90.5%. In addition, the MBI entry at CYP3A4 is “(−) (When 3 μmol/L or less, the compound is shown as (−))”. With `COc1cc(N2CCc3nc(NC(=O)Nc4ccccc4OCc4ccccc4)sc3C2)nc(OC)n1` [Compound I-39], the MBI entry at CYP3A4 is “(−) (When 3 μmol/L or less, the compound is shown as (−))”. As for `COc1cc(OC)nc(N2CCc3nc(NC(=O)Nc4ccccc4C(=O)NC(C)C)sc3C2)c1` [Compound I-62], on CYP3A4, the MBI result is reported as “(−) (When 3 μmol/L or less, the compound is shown as (−))”. As for `COc1cc(N2CCc3nc(NC(=O)Nc4cccnc4C(=O)N(C)C(C)C)sc3C2)nc(OC)n1` [Compound I-24], the inhibition at 10 µM on PI3Kγ was no less than 95%. Further, the MBI result at CYP3A4 is “(−) (When 3 μmol/L or less, the compound is shown as (−))”.

For the origin of these results see patent publication US20120071475A1, “UREA DERIVATIVES HAVING PI3K-INHIBITING ACTIVITY” (SHIONOGI & CO., LTD., priority 2009, published 2012).
